Experimental data taken from ChEMBL document CHEMBL1148226, “Evidences for the formation of bisbenzamidine-heme complexes in cell-free systems” (Bioorg Med Chem Lett, 2004).

How the values were obtained:
[1] = tested on: Plasmodium falciparum; assay: In vitro inhibitory concentration against chloroquine-sensitive Plasmodium falciparum; Not active; format: functional, organism-based
[2] = tested on: Plasmodium falciparum; assay: In vitro inhibitory concentration against chloroquine-resistant Plasmodium falciparum; Not active; format: functional, organism-based

| Compound | IC50 [1] | IC50 [2] |
| --- | --- | --- |
| CN1CCN(C)C1c1ccc(N2CCN(c3ccc(C4N(C)CCN4C)cc3)CC2)cc1 | Not Active | Not Active |
| COc1ccc(N)cc1 | Not Active | Not Active |
| CCOC(=O)c1ccc(N2CCN(c3ccc(C(=O)OCC)cc3)CC2)cc1 | Not Active | Not Active |
| Cl.N=C(N)c1ccc(N)cc1 | Not Active | Not Active |
| Nc1ccccc1 [ANILINE] | Not Active | Not Active |
| CN [METHYLAMINE] | Not Active | Not Active |
